The text below walks through data of paper PMC12817916, “A small-molecule HSP90 inhibitor, NVP-HSP990, alleviates rotavirus infection” (Journal of Virology, 2025).

Molecules are shown by their SMILES. Like-named read-outs stand apart in the source and are kept apart here.

One series concerns RV SA11 (G3P[2]) strain. Kind of series: In vitro assay of RV replication inhibition (PFA). Particulars: MOI = 1, 24 h p.i., PFA, read-out: IC50. The format is cell-based, Rotavirus. The procedure: (§1) For analysis of effects of different […] on RV replication in vitro, 10,000 MA104 cells, 30,000 Caco-2 cells, and 80,000 HT-29 cells in 100 µL complete DMEM medium were seeded in 96-well plates and cultured at 37°C and 5% CO2 for 24 h. Then the cells were infected with RV Wa or SA11 strains (MOI = 1 (PFU/cell)) for 1 h. After removing the viruses and washing cells two times with DMEM, 100 µL DMEM containing the indicated concentrations of drugs was added to each well, and the plates were incubated at 37°C and 5% CO2. At 24 h p.i., the infected cells and culture medium were collected, frozen/thawed twice, and subjected to centrifugation at 1,000 × g for 3 min at room temperature. Then, the supernatant was subjected to analysis of viral load by PFA. […] Dose-response data (drug concentrations as x-axis and normalized inhibition percentages as y-axis) were fitted to a dose-response inhibition model ([Inhibitor] vs normalized response – Variable slope). […] Model adequacy was validated using goodness-of-fit metrics (R^2 ≥ 0.95), 95% confidence intervals, and residual distribution analysis.
(§2) Wa/SA11 strains were titrated by PFA, which was carried out as described (3) with some modification. Briefly, confluent monolayers of MA104 cells in 24-well tissue culture plates were infected with 100 µL supernatants containing infectious RV particles which were serially diluted (10^1, 10^2, 10^3, and 10^4) with DMEM containing 1 µg/mL trypsin and penicillin (10,000 U/mL)-streptomycin (5 µg/mL) (DMEM-T) for 1 h at 37°C. Then 400 µL agarose overlay (0.8% agarose in 1×DMEM-T) was added and the plates were incubated at 37℃ and 5% CO2 for 5 days. The cells in each well were fixed by 1 mL 4% paraformaldehyde (Sangon Biotech, China) overnight (> 12 h) at room temperature. Then, the paraformaldehyde and agarose were removed and the monolayers were stained with 0.5 ml of a 1% (v/v) crystal violet (Sangon Biotech, China) diluted in distilled water for 10 min at room temperature. Then, the plates were drained and dried, and the plaques were enumerated. As the EDIM strain is not able to grow in cell culture, it was titrated by qPCR analysis as described (4) with EDIM VP6 gene as the target.

The subject of the next series is RV Wa (G1P[8]) strain. The series can be described thus: In vitro assay of RV replication inhibition (PFA). Format: cell-based, Rotavirus. The following applies: MOI = 1, 24 h p.i., PFA, read-out: IC50. The procedure: as §1, §2
The next series has as its system RV EDIM strain. The series can be described thus: RV EDIM diarrhea model in suckling mice (treatment after diarrhea onset). The format is in vivo, BALB/c suckling mice. The procedure: BALB/c mice were purchased from Gempharmatech Inc. (Suzhou, China) and housed under SPF conditions (22 ± 1°C, 12 h light/dark cycle). Suckling mice were obtained by mating male and female adult BALB/c mice (12- to 16-week-old). Only the 7-day-old BALB/c suckling mice with body weights ranging from 2.5 g to 4.5 g were selected for RV diarrhea models. For induction of RV diarrhea, 1 × 10^6 PFU of SA11 strain or 10 × DD50 of EDIM strain in 20 µL PBS was orally inoculated using a pipette tip to 7-day-old BALB/c suckling mice regardless of their sexes, as sex has no significant influence on RV diarrhea occurrence. We used a scoring system to evaluate fecal consistency and color as described with some modification ([27]): no stool or brown formed stool (1 point); brown soft stool (2 points); yellow soft stool (3 points); and yellow watery stool (4 points). Mice with scores of ≥2 meant diarrhea occurrence, while mice with scores of 1 meant no diarrhea. At the end of each experiment, all infected or drug-treated suckling mice were humanely euthanized via CO2 asphyxiation.
Seven-day-old BALB/c suckling mice meeting the weight criteria within each litter were randomly assigned to experimental groups. Each litter was allocated to ensure one to three suckling mice per experimental group (variations dependent on the total number of groups). Data from suckling mice assigned to the same group across multiple litters were aggregated to achieve a total sample size of n = 3–6 per experimental group. Then, the suckling mice were orally inoculated with 1 × 10^6 PFU of the SA11 strain or 10 × DD50 of the EDIM strain, or with an equal amount of PBS as mock infection. For SA11 infection, the suckling mice were orally treated once with indicated doses of drugs or with an equal volume of DMSO as control at 2 h p.i. For EDIM infection, the suckling mice were orally treated with 0.2 mg/kg/day NVP-HSP990, 30 mg/kg/day ribavirin, or an equal amount of DMSO as control from 2 days post-infection (d p.i.) to indicated time points. Diarrhea scores and body weight were monitored from day 0 to day 7 post-infection in the SA11 infection model, and from day 0 to day 9 post-diarrhea occurrence (2–11 d p.i.) in the EDIM infection model. Blinding was applied throughout data collection and analysis.
The RV-infected suckling mice were sacrificed by CO2 asphyxiation at the indicated times, and small intestines (including duodenum, jejunum, and ileum) or colon was homogenized in 0.3 mL DMEM, centrifuged at 12,000 × g for 5 min at 4°C, and the supernatant was collected. Virus contents in the supernatant were titrated with PFA as described above. Viral antigens in the supernatant were detected with enzyme-linked immunosorbent assay (ELISA) kits for RV (CUSABIO, China) following the manufacturer’s instructions. For qPCR analysis of RV protein expression, the intestines were longitudinally split and washed in 1 mL DMEM by shaking for 30 s. Then, the tissues were cut into 0.5 cm segments, incubated in Hank’s buffer containing 2.5 mM EDTA-Na2 and 1 mM dithiothreitol (Sangon Biotech, China) at 37°C with rotation at 200 rpm for 30 min, filtered with a 70 µm strainer. Then the epithelial cells were pelleted by centrifugation at 500 × g for 5 min, purified with 20% Percoll (Cytiva, Sweden), and lysed in Trizol for RNA extraction and further qPCR analysis.
The jejunum and ileum of suckling mice were fixed in 4% paraformaldehyde for 24 h, washed with PBS twice, and then subjected to paraffin embedding and slicing at 5 µm thickness. The sections were stained with hematoxylin and eosin (Beyotime, China) and observed with an Olympus BX51 microscope, and the data were processed by CaseViewer 2.4 software. For immunohistochemistry analysis, the fixed tissues were dehydrated in 30% sucrose, embedded in Optimal Cutting Temperature compound, frozen with liquid nitrogen, and cryosliced at 10 µm thickness. […]

With `COc1cccc(-c2cc(F)ccc2[C@H]2Cc3nc(N)nc(C)c3C(=O)N2)n1` [NVP-HSP990], the IC50 in the series with RV SA11 (G3P[2]) strain (SA11 strain in Caco-2 cells) came to 7.47 ± 4.84 nM; in the series with RV SA11 (G3P[2]) strain (SA11 strain in HT-29 cells) it was 3.85 ± 1.16 nM; with RV SA11 (G3P[2]) strain (SA11 strain in MA104 cells), 0.84 ± 0.17 nM; in the series on RV Wa (G1P[8]) strain (Wa strain in Caco-2 cells), 4 ± 1.28 nM; in the series with RV Wa (G1P[8]) strain (Wa strain in HT-29 cells) it was 4.69 ± 0.9 nM; in the series on RV Wa (G1P[8]) strain (Wa strain in MA104 cells) it was 0.96 ± 0.13 nM. Also, the “therapeutic effect on diarrhea compared to ribavirin” value in the series on RV EDIM strain (0.2 mg/kg/day NVP-HSP990 vs 30 mg/kg/day ribavirin, oral, 5 days) is “superior therapeutic effect”. For the same compound, in the series with RV EDIM strain (0.2 mg/kg/day oral for 5 days, observed for another 5 days), the “weight gain in EDIM-infected suckling mice” value was “did not adversely affect”. For the same compound, in the series with RV EDIM strain (0.2 mg/kg/day oral for 5 days, observed for another 5 days, compared to untreated group), the diarrhea scores entry was “significantly reduced”. Also, the “foamy degeneration and viral infection in small intestinal epithelial cells” value in the series with RV EDIM strain (0.2 mg/kg/day oral from 2 d p.i., 3 consecutive days, compared to untreated controls) is given as “marked reduction”. Further, in the series on RV EDIM strain (0.2 mg/kg/day oral, 3 days, ELISA, vs untreated or ribavirin-treated (30 mg/kg/day) groups), the “RV viral antigens in colonic contents” value is “significantly lower”. For the same compound, in the series on RV EDIM strain (0.2 mg/kg/day oral, 3 days, qPCR, compared to untreated group), the “viral antigen (VP6 and NSP4) expression in intestinal epithelial cells” value was “significantly reduced”.
